Reference: patent US20200268707A1, “METHODS OF MODULATING PROTEIN EXOCYTOSIS AND USES OF SAME IN THERAPY” (Yeda Research and Development Co. Ltd., priority 2016, published 2020)
Entries after “also recorded” stand apart in the source; their conditions may differ.

Experiments:
[1] = test system: proteasomal degradation in Golgi fractions of HEK293 cells; experiment: suc-LLVY-AMC proteasome cleavage reporter assay, Golgi fractions; format: cell-based, human; settings: Golgi fractions from treated vs untreated cells, 150 minutes
Procedure: Proteasome cleavage reporter assay Golgi or ER fractions from drug/siRNA treated HEK293 cells were incubated with suc-LLVY-AMC (Biotest) as per protocol and fluorescence levels were measured over time using a Tecan M200 plate reader (Ex: 360 nm, Em: 460 nm).
Quality control of protein substrates requires that unfolded and misfolded proteins be identified, ubiquitylated and finally, degraded. Following the above results, showing K-48 linked polyubiquitylation occurring in the Golgi apparatus and the presence of PSMD6, the final step in quality control was examined i.e., degradation. In order to assess degradation levels in the Golgi, the suc-LLVY-AMC fluorogenic proteasomal substrate assay was utilized, wherein the proteasomal substrate was exposed to Golgi fractions from treated vs. untreated cells. Fluorescence levels were measured over time, indicating the increase in proteasomal cleavage product (FIG. 8A). […] Treatment with the proteotoxic stressors Tunicamycin and monensin caused an increase in Golgi-localized degradation (FIGS. 8B, C), which is consistent with their effect on Golgi protein polyubiquitylation (FIG. 3B). […] In order to assess the involvement of PSMD6 in Golgi associated degradation, cells were transfected with either control siRNA or siRNA targeting PSMD6. The cells were fractionated and subjected to a suc-LLVY-AMC assay for both ER and Golgi fractions from cells treated with either siRNA. […] The results of the proteasomal activity assay point to active proteasomal degradation taking place in the Golgi apparatus. Furthermore, PSMD6 is shown to be a central component of Golgi-associated degradation while also playing a role in ERAD.

CD-138 positive MM cells = experiment: Apoptosis (Annexin V) in bone marrow cells flushed from mice injected with 5TGM1 cells; format: cell-based; settings: 24 hours
Procedure: The effect of monensin was tested in MM mice in vivo. To this end bone marrow cells were flushed from C57BL/KalwRij mice injected with 5TGM1 cells. Cells harvested from these mice included MM cells and others, found normally in mouse bone marrow.

RPMI 8226 cells = experiment: Live/dead ratio, trypan blue and automated cell counter; format: cell-based, human
Procedure: Various cell lines treated with 2 μM of monensin over 2 days show increased cell death. Cells were counted using countess 2 automated cell counter to determine live/dead ratios.
(A) Quantification of live/dead cells following 48 hours of monensin treatment (2 μM). (B) Quantification of cell death of RPMI-8226 cells over 3 days of treatment with monensin […]. (C) Western blot against K48-linked polyubiquitin chains of Golgi fractions collected from RPMI 8226 cells either untreated or treated with monensin for 2 hrs. (D) XTT assay of untreated HeLa cells following siRNA mediated knockdowns as indicated Pvalue(siPSMD6+siHACE1)=0.002. […] (H) FACS analysis and quantification of multiple myeloma cells (MM) and normal B cells (BC) in spleens of control vs. monensin-treated mice Pvalue(MM monensin)=0.008. (I) FACS analysis and quantification of multiple myeloma cells (MM) and normal B cells (BC) in bone marrow of control vs. monensin-treated mice. […]
HEK 293, IMR-90 and HeLa cells were grown in DMEM supplemented with 10% fetal bovine serum, 1% Penicillin/streptomycin and L-glutamine (2 mmole/liter) (Biological industries) at 37° C. with 5% CO2. […] Cell death assessment was done by trypan blue staining and counted with Countess IFM automated cell counter (Thermo Fisher). Proliferation of mammalian cells was measured by XTT assay. […]

[2] = test system: K48 linked polyubiquitination in the Golgi of RPMI 8226 cells; experiment: Western blot against K48-linked polyubiquitin chains of Golgi fractions from RPMI 8226 cells; format: cell-based, human; settings: 2 hours of monensin treatment
Procedure: (A) Quantification of live/dead cells following 48 hours of monensin treatment (2 μM). (B) Quantification of cell death of RPMI-8226 cells over 3 days of treatment with monensin […]. (C) Western blot against K48-linked polyubiquitin chains of Golgi fractions collected from RPMI 8226 cells either untreated or treated with monensin for 2 hrs. (D) XTT assay of untreated HeLa cells following siRNA mediated knockdowns as indicated Pvalue(siPSMD6+siHACE1)=0.002. (E) As in D, treated for 48 hours with monensin (200 nM) Pvalue(siPSMD6+siHACE1)=0.001. (F) Schematic outline of in-vivo experiment. (G) ELISA results of IgG2β levels in blood of mice injected with MM 5TGM1 cells over a period of 32 days. (H) FACS analysis and quantification of multiple myeloma cells (MM) and normal B cells (BC) in spleens of control vs. monensin-treated mice Pvalue(MM monensin)=0.008. (I) FACS analysis and quantification of multiple myeloma cells (MM) and normal B cells (BC) in bone marrow of control vs. monensin-treated mice. Pvalue(MM monensin)=0.001. (J) Spleen sizes of untreated, injected control vs. injected monensin-treated mice and uninjected, untreated mice.
Cells were grown to confluence in 4-15 cm plates before being scraped and homogenized in swelling buffer (Merbl and Kirschner, 2014) using 20 strokes in a kontess dounce homogenizer. […]

SMILES: CC[C@@]1([C@@H]2O[C@@H]([C@H]3O[C@@](O)(CO)[C@H](C)C[C@@H]3C)C[C@@H]2C)CC[C@H]([C@]2(C)CC[C@]3(C[C@H](O)[C@@H](C)[C@@H]([C@@H](C)[C@@H](OC)[C@H](C)C(=O)O)O3)O2)O1 [monensin]
- Golgi-localized proteasomal degradation (suc-LLVY-AMC cleavage) [1]: increase
- cell death of CD-138 positive MM cells (CD-138 positive MM cells): comparable to that of bortezomib
- cell death (live/dead ratio) (RPMI 8226 cells; RPMI 8226 multiple myeloma, secretory, 2 μM monensin over 2 days): greatest; also recorded: particularly sensitive
- MM cells killed (RPMI 8226 cells; RPMI-8226 cells, 3 days of treatment with monensin): 99%
- K48 linked polyubiquitination in the Golgi [2]: sufficient for induction of K48 linked polyubiquitination
